This assay addresses T1, glucocerebrosidase (Homo sapiens, UniProt P04062).
T1 sequence (P04062 40-536): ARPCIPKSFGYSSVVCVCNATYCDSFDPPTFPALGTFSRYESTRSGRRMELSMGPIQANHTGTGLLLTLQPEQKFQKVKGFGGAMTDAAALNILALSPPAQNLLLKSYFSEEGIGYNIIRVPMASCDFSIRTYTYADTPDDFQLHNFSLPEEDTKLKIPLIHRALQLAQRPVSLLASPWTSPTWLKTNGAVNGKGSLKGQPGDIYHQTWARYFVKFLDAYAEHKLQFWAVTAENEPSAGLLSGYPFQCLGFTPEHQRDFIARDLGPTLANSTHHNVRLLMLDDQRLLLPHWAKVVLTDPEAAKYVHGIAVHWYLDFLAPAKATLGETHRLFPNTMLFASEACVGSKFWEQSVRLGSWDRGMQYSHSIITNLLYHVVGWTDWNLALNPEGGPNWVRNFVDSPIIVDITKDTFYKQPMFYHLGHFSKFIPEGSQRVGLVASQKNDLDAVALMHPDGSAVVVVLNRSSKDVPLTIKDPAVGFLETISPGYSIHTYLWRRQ
The experiment in a line: Glucocerebrosidase activity assay with blue substrate (4MU-Glc). The format is biochemical. Here is the method:
Example 2—Glucocerebrosidase Activity Assay with Blue Substrate
The compounds in DMSO solution 0.5 μL/well were transferred to a black 96-well plate (the final titration was 24 nM to 50 μM, 12 concentrations, 2× dilution). 33.5 μL enzyme solution (7.5 nM final concentration) was transferred to the wells. After 5 min of incubation at room temperature, the enzyme reaction was initiated by the addition of 33 μL/well blue substrate. Final concentration of the blue substrate (4MU-Glc) was 1.5 mM. The blue substrate reaction was terminated by the addition of 33 μL/well stop solution (1 M NaOH and 1 M glycine mixture, pH 10) after 30 min of incubation at 37° C. The fluorescence was then measured in the Biotek Synergy H1 multi-mode plate reader with Ex=365 nm and Em=440 nm.
Additional compounds were synthesized and tested for glucocerebrosidase modulatory activity as described in Example 1 and Example 2.

The mark [1] stands for this setting: Table 1, 7.5 nM enzyme, 1.5 mM 4MU-Glc, 30 min at 37° C.
Setting [2] is: Table 1, 7.5 nM enzyme, 1.5 mM 4MU-Glc, 30 min at 37° C., titration 24 nM to 50 μM.
Setting [3] is: Table 2, additional compounds, tested as described in Example 2.

One may read the Emax as the maximal effect, on the per cent scale that the assay sets. Usually AC50 stands for the concentration at which the activity in the assay is half-maximal. Consider `CN(C[C@H]1COc2ccccc2O1)c1nc(-c2cccnc2)nc2c1cnn2C` [Compound 10], for which, under setting [1], the maximum response (Emax) stood at 573%. Further, the AC50 under setting [2] came out at 1.38 µM. In the case of `CCn1ncc2c(N3CC[C@@H](Oc4ccccc4)C3)nc(-c3cncc(Cl)c3)nc21` [Compound 161], under setting [3], the AC50 is 39.8 µM and the maximum response (Emax) amounted to 190%.

Take `COC(=O)Cc1cccc(OCCN(C)c2nc(-c3cccnc3)nc3c2cnn3C)c1` [Compound 90]: the Emax under setting [1] came to 908%. Besides, the AC50 under setting [2] was determined as 7.94 µM. Take `CN(C[C@@H]1COc2ccccc2O1)c1nc(-c2cccnc2)nc2ccccc12` [Compound 12]: the maximal response (Emax) under setting [1] turned out to be 220%. For the same compound, under setting [2], the AC50 is 2.67 µM. In the same order, the values of `CN(CCOc1ccccc1)c1nc(-c2cccnc2)nn2cccc12` [Compound 97] are 531% and 3.16 µM. In the case of `CN(C[C@H]1COc2ccccc2O1)c1nc(-c2cccnc2)nc2ccccc12` [Compound 9, (S)—N-((2,3-dihydrobenzo[b][1,4]dioxin-2-yl)methyl)-N-methyl-2-(pyridin-3-yl)quinazolin-4-amine], the Emax under setting [1] was 645%. Moreover, under setting [2], the AC50 is 1.49 µM. As to `CCc1cncc(-c2nc(N(C)CCOc3ccccc3)c3ccccc3n2)c1` [Compound 144], under setting [3], the AC50 turned out to be 3.16 µM and the Emax is 700%. In the case of `CN(CCOc1ccccc1)c1nc(-c2cccnc2)nc2cccc(F)c12` [Compound 41], the Emax under setting [1] worked out at 180%. Under setting [2], the AC50 is 13.5 µM. `CN(CCOc1ccccc1)c1nc(-c2cccnc2)nc2c(C(F)(F)F)cccc12` [Compound 43]: the maximal effect (Emax) under setting [1] worked out at 400%. Further, the concentration at half-maximal activity (AC50) under setting [2] came to 1.81 µM.

`CN(CCOc1ccccc1)c1nc(-c2cccnc2)nc2c1cnn2-c1ccccc1` [Compound 151]: under setting [3], the AC50 was determined as 2.5 µM and the Emax is 305%. On to `CN(CCOc1cccc(C(=O)O)c1)c1nc(-c2cccnc2)nc2ccccc12` [Compound 80], for which the Emax under setting [1] was determined as 442%. Besides, the AC50 under setting [2] stood at 15.8 µM. In the same order, the values of `CN(CCOc1ccc(CN)cc1)c1nc(-c2cccnc2)nc2ccccc12` [Compound 53] are 300% and 4.1 µM.

As for `COC(=O)Cc1cccc(OCCN(C)c2nc(-c3cccnc3)nc3ccccc23)c1` [Compound 95], the maximal response (Emax) under setting [1] turned out to be 721%. Besides, the AC50 under setting [2] was 4.47 µM. In the same order, the values of `CN(CCOc1ccccc1)c1nc(-c2cccnc2)nc2ccccc12` [Compound 13] are 750% and 3.55 µM.

Turning to `Cc1nn(Cc2ccccc2)c(C)c1N(C)c1nc(-c2cccnc2)nc2ccccc12` [Compound 74], the Emax under setting [1] turned out to be 194%. Further, under setting [2], the AC50 came out at 10 µM. Taken in the same sequence, the figures for `CN(CCOC(C)(C)C)c1nc(-c2cccnc2)nc2ccccc12` [Compound 29] were 180% and 39.8 µM. In the case of `CCc1ccc(-c2nc(N(C)CCOc3ccc(CN)cc3)c3cnn(CC)c3n2)cc1` [Compound 124], under setting [3], the AC50 amounted to 6.31 µM and the Emax was 480%. `c1ccc(OC2CN(c3nc(-c4cccnc4)nc4ccccc34)C2)cc1` [Compound 165]: under setting [3], the AC50 was found to be 3.98 µM and the maximum response (Emax) came to 305%. For `CN(CCOc1ccccc1)c1nc(-c2cncc(Cl)c2)nc2ccccc12` [Compound 32], the Emax under setting [1] was 250%. Besides, the AC50 under setting [2] worked out at 1.21 µM. In the same order, the values of `CN(CCOc1ccc(C(=O)O)cc1)c1nc(-c2cccnc2)nc2ccccc12` [Compound 79] are 252% and 12.6 µM. As to `CN(CCOc1ccccc1)c1nc(-c2cccnc2)nc2scnc12` [Compound 93], the Emax under setting [1] is 270%. Moreover, the half-maximal activity concentration (AC50) under setting [2] came out at 4.47 µM. Taken in the same sequence, the figures for `c1ccc(O[C@H]2CCCN(c3nc(-c4cccnc4)nc4ccccc34)C2)cc1` [Compound 25] were 220% and 3.98 µM. For `CN(CCOc1ccccc1)c1cc(Cl)nc(-c2cccnc2)n1` [Compound 168], under setting [3], the AC50 turned out to be 4 µM and the Emax stood at 360%. For the compound `CCn1ncc2c(N3CC[C@H](Oc4ccccc4)C3)nc(-c3cncc(Cl)c3)nc21` [Compound 160], under setting [3], the AC50 turned out to be 28.2 µM and the Emax is 130%. In the same order, the values of `CN(CCOc1ccccc1)c1nc(-c2cccnc2)nc2cccnc12` [Compound 182] are 5.01 µM and 225%. As for `Cn1ncc2c(NCCOC3CCCCC3)nc(-c3cccnc3)nc21` [Compound 91], under setting [1], the Emax came to 322%. Also, the AC50 under setting [2] was 44.7 µM. `CN(CCOc1ccccc1)c1nc(-c2cccnc2)nc2c1ncn2C` [Compound 92]: under setting [1], the Emax is 790%. In addition, under setting [2], the AC50 came to 35.5 µM. As to `CN(CCOc1cccc(CC(=O)ON2C(=O)CCC2=O)c1)c1nc(-c2cccnc2)nc2c1cnn2C` [Compound 96], the Emax under setting [1] is 583%. The AC50 under setting [2] turned out to be 7.94 µM.

As for `CCN(CCOc1ccccc1)c1nc(-c2cccnc2)nc2ccccc12` [Compound 14], the Emax under setting [1] is 430%. The AC50 under setting [2] was 5.01 µM.

For the compound `CN(CCOc1ccccc1)c1nc(-c2cccnc2)nc2c1CCC2` [Compound 56], the Emax under setting [1] worked out at 295%. Besides, the AC50 under setting [2] worked out at 3.3 µM. Regarding `CN(CCOc1ccccc1)c1cc(N2CCC(O)CC2)nc(-c2cccnc2)n1` [Compound 170], under setting [3], the concentration at half-maximal activity (AC50) turned out to be 28.2 µM and the Emax was found to be 740%. Turning to `CCCCCC(=O)NCc1ccc(OCCN(C)c2nc(-c3cccnc3)nc3c2cnn3CC)cc1` [Compound 126], under setting [3], the AC50 turned out to be 0.2 µM and the Emax was found to be 150%. For `CN(CCOc1ccccc1)c1nc(-c2cncc(F)c2)nc2ncccc12` [Compound 69], the AC50 under setting [2] was found to be 7.1 µM. Take `COC(=O)c1cccc(OCCN(C)c2nc(-c3cccnc3)nc3ccccc23)c1` [Compound 77]: the Emax under setting [1] is 432%. The AC50 under setting [2] came out at 5.01 µM. Taken in the same sequence, the figures for `CCCN(CCOc1ccccc1)c1nc(-c2cccnc2)nc2ccccc12` [Compound 15] were 130% and 3.12 µM. With `CN(CCOc1ccccc1)c1cc(-c2ccccc2)nc(-c2cccnc2)n1` [Compound 65], the Emax under setting [1] turned out to be 144%. Also, the AC50 under setting [2] is 1 µM. Taken in the same sequence, the figures for `CN(CCOc1ccccc1)c1nc(-c2ccc(F)nc2)nc2ccccc12` [Compound 36] were 220% and 1.58 µM. Regarding `Cn1ncc2c(N3CCC[C@H](C(=O)Nc4ccccc4)C3)nc(-c3cccnc3)nc21` [Compound 116], under setting [3], the AC50 worked out at 12.6 µM and the Emax came out at 210%. Take `CN(CCOc1ccccc1)c1cc(N2CCC(O)CC2)nc(Cl)n1` [Compound 167]: under setting [3], the half-maximal activity concentration (AC50) stood at 28.2 µM and the Emax amounted to 250%. With `CN(CCOc1ccc(C(=O)ON2C(=O)CCC2=O)cc1)c1nc(-c2cccnc2)nc2ccccc12` [Compound 83], under setting [1], the Emax turned out to be 230%. In addition, the AC50 under setting [2] turned out to be 3.98 µM.

For the compound `COC(=O)Cc1cccc(OCCN(C)c2nc(-c3cccnc3)nc3ncccc23)c1` [Compound 94], the AC50 under setting [2] turned out to be 14.1 µM. Turning to `CCn1ncc2c(N3CC[C@@H](Oc4ccccc4)C3)nc(-c3cncc(C(F)(F)F)c3)nc21` [Compound 159], under setting [3], the AC50 is 44.6 µM and the Emax was 242%. In the same order, the values of `c1ccc(O[C@@H]2CCN(c3nc(-c4cccnc4)nc4ccccc34)C2)cc1` [Compound 155] are 1.78 µM and 260%. In the same order, the values of `CCn1ncc2c(N3CC[C@H](Oc4ccccc4)C3)nc(-c3cncc(C(F)(F)F)c3)nc21` [Compound 158] are 39.8 µM and 163%. In the same order, the values of `CN(CCOc1ccc2nccnc2c1)c1nc(-c2cccnc2)nc2ccccc12` [Compound 138] are 10 µM and 875%.

`CCn1ncc2c(N3CC[C@@H](Oc4ccccc4)C3)nc(-c3cccnc3)nc21` [Compound 157]: under setting [3], the AC50 was 22.4 µM and the Emax stood at 580%. Take `c1cncc(-c2nc(N3CCc4cccnc4C3)c3ccccc3n2)c1` [Compound 148]: under setting [3], the concentration at half-maximal activity (AC50) turned out to be 35 µM and the Emax is 285%. Take `Cn1ncc2c(N3CC[C@@H](Oc4ccccc4)C3)nc(-c3cccnc3)nc21` [Compound 100]: the Emax under setting [1] came to 833%. Under setting [2], the AC50 stood at 5.62 µM.

With `CCn1ncc2c(N(C)CCOc3ccc(CN)cc3)nc(-c3cccnc3)nc21` [Compound 110], the Emax under setting [1] is 750%. Further, under setting [2], the AC50 was 7.94 µM. With `CN(CCOc1ccccc1)c1cc(N2CC(O)C2)nc(-c2cccnc2)n1` [Compound 173], under setting [3], the AC50 is 2.5 µM and the maximal effect (Emax) was 260%. With `COC(=O)Cc1ccc(CNc2nc(-c3cccnc3)nc3ccccc23)cc1` [Compound 61], the Emax under setting [1] stood at 127%. The AC50 under setting [2] was 2.51 µM. For the compound `CN(CCOc1ccccc1)c1nc(-c2cccnc2)nc2ncccc12` [Compound 62], the AC50 under setting [2] turned out to be 7.08 µM.
